melting point: 128 to 129 °C
SMILES: O=C(CC(=O)c1cccn1Cc1ccc(F)cc1)c1ccncn1
